Converted amounts (≈) assume the structure as drawn. Where two headings read alike, the source gives them in different places.
Test system: A. baumannii
Assay: MIC, broth microdilution in CAMHB supplemented with human serum, read at 100% growth inhibition
Format: cell-based, Acinetobacter baumannii
Conditions: Acinetobacter baumannii, 20% HS, read-out: MIC
Method: MIC determinations were performed using the broth microdilution method and in line with CLSI guidelines M07 and M100 (refs. [37],[38]). Bacterial inocula were prepared by diluting a 0.5 McFarland suspension in CAMHB or lysogeny broth (LB) specifically for A. baylyi isolates. […] MIC values of all of the tested antibiotics were read as the lowest compound concentration inhibiting bacterial growth by naked eye or beyond which the OD600 ceased to decrease.

`CN1C(=O)[C@H](CCCCN)NC(=O)[C@H](CCCN)NCc2cccnc2Sc2cccc(-c3ccc(C(=O)O)cc3)c2CNC(=O)[C@@H]1Cc1c[nH]c2ccccc12` [zosurabalpin] showed an MIC (isolate 1093170) of 0.25 µg/mL (≈ 0.316 µM), an MIC (isolate 1098735) of 1 µg/mL (≈ 1.26 µM) and an MIC (isolate 1104059) of 1 µg/mL (≈ 1.26 µM). For the same compound, the MIC (isolate 1104061) was 0.25 µg/mL (≈ 0.316 µM), the MIC (isolate 1104062) was 0.25 µg/mL (≈ 0.316 µM) and the MIC (isolate 1115481) was 0.06 µg/mL (≈ 0.0759 µM). It also gave an MIC (isolate 1115495) of 0.5 µg/mL (≈ 0.632 µM), an MIC (isolate 1115510) of 0.5 µg/mL (≈ 0.632 µM) and an MIC (isolate 1115514) of 0.25 µg/mL (≈ 0.316 µM). For the same compound, the MIC (isolate 1126813) was 0.25 µg/mL (≈ 0.316 µM), the MIC (isolate 1140100) was 0.06 µg/mL (≈ 0.0759 µM) and the MIC (isolate 1154091) was 1 µg/mL (≈ 1.26 µM). For the same compound, the MIC (isolate 1161864) was 0.016 µg/mL (≈ 0.0202 µM), the MIC (isolate 1171976) was 0.06 µg/mL (≈ 0.0759 µM) and the MIC (isolate 1172109) was 0.016 µg/mL (≈ 0.0202 µM). The MIC (isolate 1172126) was 0.06 µg/mL (≈ 0.0759 µM), the MIC (isolate 1630178) was 0.25 µg/mL (≈ 0.316 µM) and the MIC (isolate 1630190) was 1 µg/mL (≈ 1.26 µM). For the same compound, the MIC (isolate 1630410) was 0.25 µg/mL (≈ 0.316 µM), the MIC (isolate 1631625) was 0.06 µg/mL (≈ 0.0759 µM) and the MIC (isolate 1631735) was 0.5 µg/mL (≈ 0.632 µM). For the same compound, the MIC (isolate 1631846) was 0.125 µg/mL (≈ 0.158 µM), the MIC (isolate 1631847) was 2 µg/mL (≈ 2.53 µM) and the MIC (isolate 1631848) was 4 µg/mL (≈ 5.06 µM). It also gave an MIC (isolate 1631849) of 0.06 µg/mL (≈ 0.0759 µM), an MIC (isolate 1631949) of 0.5 µg/mL (≈ 0.632 µM) and an MIC (isolate 1631953) of 0.5 µg/mL (≈ 0.632 µM). It also gave an MIC (isolate 1631954) of 0.25 µg/mL (≈ 0.316 µM), an MIC (isolate 1631955) of 0.06 µg/mL (≈ 0.0759 µM) and an MIC (isolate 1632073) of 0.06 µg/mL (≈ 0.0759 µM). It also gave an MIC (isolate 1632166) of 0.25 µg/mL (≈ 0.316 µM), an MIC (isolate 1632273) of 0.25 µg/mL (≈ 0.316 µM) and an MIC (isolate 1633081) of 0.25 µg/mL (≈ 0.316 µM). It also gave an MIC (isolate 1633082) of 0.5 µg/mL (≈ 0.632 µM), an MIC (isolate 1633098) of 0.25 µg/mL (≈ 0.316 µM) and an MIC (isolate 1633115) of 0.25 µg/mL (≈ 0.316 µM). The MIC (isolate 1633117) was 1 µg/mL (≈ 1.26 µM), the MIC (isolate 1633121) was 0.5 µg/mL (≈ 0.632 µM) and the MIC (isolate 1633124) was 1 µg/mL (≈ 1.26 µM). It also gave an MIC (isolate 1633269) of 2 µg/mL (≈ 2.53 µM), an MIC (isolate 1633271) of 1 µg/mL (≈ 1.26 µM) and an MIC (isolate 1633272) of 1 µg/mL (≈ 1.26 µM). For the same compound, the MIC (isolate 1728772) was 0.25 µg/mL (≈ 0.316 µM), the MIC (isolate 1728773) was 0.5 µg/mL (≈ 0.632 µM) and the MIC (isolate 1728774) was 0.25 µg/mL (≈ 0.316 µM). For the same compound, the MIC (isolate 1728884) was 0.5 µg/mL (≈ 0.632 µM), the MIC (isolate 1729042) was 2 µg/mL (≈ 2.53 µM) and the MIC (isolate 1729043) was 1 µg/mL (≈ 1.26 µM). The MIC (isolate 1729044) was 1 µg/mL (≈ 1.26 µM), the MIC (isolate 1729049) was 2 µg/mL (≈ 2.53 µM) and the MIC (isolate 1729050) was 2 µg/mL (≈ 2.53 µM). The MIC (isolate 1729052) was 1 µg/mL (≈ 1.26 µM), the MIC (isolate 1729102) was 4 µg/mL (≈ 5.06 µM) and the MIC (isolate 1729123) was 0.5 µg/mL (≈ 0.632 µM). For the same compound, the MIC (isolate 1729351) was 0.5 µg/mL (≈ 0.632 µM) and the MIC (isolate 1729352) was 0.25 µg/mL (≈ 0.316 µM).

From PMC10794144, “A novel antibiotic class targeting the lipopolysaccharide transporter” (Nature, 2024)
